#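 Each compound was tested at five concentrations against cells in 96-well plates for 48 hours. At the TGI there is no net growth.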
# System: P388/ADR leukemia
# Test: NCI tumour cell line growth inhibition, 48 h
smiles,measurement,value
CCCCCCCC(=O)O[C@H]1[C@H]2[C@@H](CC1(C)C)C(=O)[C@]13O[C@H]1C(=O)[C@]1(CO1)[C@]23C,TGI,1650 nM
